Results: PubChem BioAssay AID1963847 (Molecular Pharmacology Branch, DTP, NCI, 2024)

Test system: 415267-285-R-J2-PDC complex spheroid viability
Assay: Anticancer human tumor 415267-285-R-J2-PDC patient-derived breast carcinoma cell line growth inhibition [POLQ]
Conditions: for IC50: curve of first compound; for viability, T/C: stronger effect = lower value
How it was run: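 Three-cell-type spheroids modelling solid tumor plus stroma served as the readout system; POL inhibitors were tested individually and in combination, concentration ranges set by clinical Cmax where known.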

[1] = second compound 0.0316 µM, first compound 0.0316 µM
[2] = second compound 0.0316 µM, first compound 0.1 µM
[3] = second compound 0.0316 µM, first compound 0.316 µM
[4] = second compound 0.0316 µM, first compound 1 µM
[5] = second compound 0.0316 µM, first compound 3.16 µM
[6] = second compound 0.0316 µM, first compound 10 µM
[7] = second compound 0.1 µM, first compound 0.0316 µM
[8] = second compound 0.1 µM, first compound 0.1 µM
[9] = second compound 0.1 µM, first compound 0.316 µM
[10] = second compound 0.1 µM, first compound 1 µM
[11] = second compound 0.1 µM, first compound 3.16 µM
[12] = second compound 0.1 µM, first compound 10 µM
[13] = second compound 0.316 µM, first compound 0.0316 µM
[14] = second compound 0.316 µM, first compound 0.1 µM
[15] = second compound 0.316 µM, first compound 0.316 µM
[16] = second compound 0.316 µM, first compound 1 µM
[17] = second compound 0.316 µM, first compound 3.16 µM
[18] = second compound 0.316 µM, first compound 10 µM
[19] = second compound 1 µM, first compound 0.0316 µM
[20] = second compound 1 µM, first compound 0.1 µM
[21] = second compound 1 µM, first compound 0.316 µM
[22] = second compound 1 µM, first compound 1 µM
[23] = second compound 1 µM, first compound 3.16 µM
[24] = second compound 1 µM, first compound 10 µM
[25] = second compound 3.16 µM, first compound 0.0316 µM
[26] = second compound 3.16 µM, first compound 0.1 µM
[27] = second compound 3.16 µM, first compound 0.316 µM
[28] = second compound 3.16 µM, first compound 1 µM
[29] = second compound 3.16 µM, first compound 3.16 µM
[30] = second compound 3.16 µM, first compound 10 µM
[31] = second compound 10 µM, first compound 0.0316 µM
[32] = second compound 10 µM, first compound 0.1 µM
[33] = second compound 10 µM, first compound 0.316 µM
[34] = second compound 10 µM, first compound 1 µM
[35] = second compound 10 µM, first compound 3.16 µM
[36] = second compound 10 µM, first compound 10 µM
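Note: spheroids exposed to compounds for one week before readout.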
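Throughout, for viability, T/C: luminescence used as stand-in measure of viable cells; 100% = DMSO vehicle control viability.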

COc1cc2cc(C(=O)CCC(=O)O)sc2cc1OC + Cc1cccc(N(C)C(=O)C2C(O)CCN2c2nc(C)cc(C(F)(F)F)c2C#N)c1
IC50 (second compound 0.0316 µM): > 10 µM | IC50 (second compound 0.1 µM): > 10 µM | IC50 (second compound 0.316 µM): > 10 µM | IC50 (second compound 1 µM): > 10 µM | IC50 (second compound 3.16 µM): > 10 µM | IC50 (second compound 10 µM): > 10 µM | viability, T/C [1]: 101% | viability, T/C [2]: 103% | viability, T/C [3]: 101% | viability, T/C [4]: 104% | viability, T/C [5]: 116% | viability, T/C [6]: 99% | viability, T/C [7]: 103% | viability, T/C [8]: 98.7% | viability, T/C [9]: 98.7% | viability, T/C [10]: 102% | viability, T/C [11]: 100% | viability, T/C [12]: 101% | viability, T/C [13]: 99.7% | viability, T/C [14]: 107% | viability, T/C [15]: 101% | viability, T/C [16]: 104% | viability, T/C [17]: 91.5% | viability, T/C [18]: 109% | viability, T/C [19]: 111% | viability, T/C [20]: 101% | viability, T/C [21]: 95.3% | viability, T/C [22]: 103% | viability, T/C [23]: 100% | viability, T/C [24]: 100% | viability, T/C [25]: 110% | viability, T/C [26]: 112% | viability, T/C [27]: 99.1% | viability, T/C [28]: 102% | viability, T/C [29]: 97.3% | viability, T/C [30]: 115% | viability, T/C [31]: 98.8% | viability, T/C [32]: 112% | viability, T/C [33]: 109% | viability, T/C [34]: 105% | viability, T/C [35]: 103% | viability, T/C [36]: 109%

COc1ccc([C@@H](O)c2cc(-c3ncnc4cc(N5CCOCC5)ccc34)c(F)cc2Cl)nn1 + Nc1ccc(C#CCN(C(=O)Cc2ncc(C(F)(F)F)cc2C(F)(F)F)c2ccc(F)cc2)nn1
IC50 (second compound 0.0316 µM): > 10 µM | IC50 (second compound 0.1 µM): > 10 µM | IC50 (second compound 0.316 µM): > 10 µM | IC50 (second compound 1 µM): > 10 µM | IC50 (second compound 3.16 µM): > 10 µM | IC50 (second compound 10 µM): > 10 µM | viability, T/C [1]: 94.4% | viability, T/C [2]: 99.9% | viability, T/C [3]: 100% | viability, T/C [4]: 106% | viability, T/C [5]: 93% | viability, T/C [6]: 58.2% | viability, T/C [7]: 108% | viability, T/C [8]: 109% | viability, T/C [9]: 84.7% | viability, T/C [10]: 92.4% | viability, T/C [11]: 95.2% | viability, T/C [12]: 53.2% | viability, T/C [13]: 107% | viability, T/C [14]: 103% | viability, T/C [15]: 107% | viability, T/C [16]: 110% | viability, T/C [17]: 84.4% | viability, T/C [18]: 58% | viability, T/C [19]: 98.7% | viability, T/C [20]: 88% | viability, T/C [21]: 104% | viability, T/C [22]: 102% | viability, T/C [23]: 91.2% | viability, T/C [24]: 51.6% | viability, T/C [25]: 102% | viability, T/C [26]: 104% | viability, T/C [27]: 108% | viability, T/C [28]: 106% | viability, T/C [29]: 93.3% | viability, T/C [30]: 69.1% | viability, T/C [31]: 105% | viability, T/C [32]: 107% | viability, T/C [33]: 102% | viability, T/C [34]: 102% | viability, T/C [35]: 89.3% | viability, T/C [36]: 64.5%

Nc1ccn(C2OC(CO)C(O)C2(F)F)c(=O)n1 (stereo not given) + COC1C(OC(N)=O)C(O)C(Oc2ccc3c(O)c(NC(=O)c4ccc(O)c(CC=C(C)C)c4)c(=O)oc3c2C)OC1(C)C
IC50 (second compound 0.0316 µM): < 0.0316 µM | IC50 (second compound 0.1 µM): < 0.0316 µM | IC50 (second compound 0.316 µM): < 0.0316 µM | IC50 (second compound 1 µM): < 0.0316 µM | IC50 (second compound 3.16 µM): < 0.0316 µM | IC50 (second compound 10 µM): < 0.0316 µM | viability, T/C [1]: 6.95% | viability, T/C [2]: 7.41% | viability, T/C [3]: 5.11% | viability, T/C [4]: 5.97% | viability, T/C [5]: 5.96% | viability, T/C [6]: 7.99% | viability, T/C [7]: 7.63% | viability, T/C [8]: 6.2% | viability, T/C [9]: 4.86% | viability, T/C [10]: 5.57% | viability, T/C [11]: 5.43% | viability, T/C [12]: 5.04% | viability, T/C [13]: 6.64% | viability, T/C [14]: 8.84% | viability, T/C [15]: 5.17% | viability, T/C [16]: 4.85% | viability, T/C [17]: 6.19% | viability, T/C [18]: 4.45% | viability, T/C [19]: 31.1% | viability, T/C [20]: 5.76% | viability, T/C [21]: 5.6% | viability, T/C [22]: 5.77% | viability, T/C [23]: 5.83% | viability, T/C [24]: 5.65% | viability, T/C [25]: 7.56% | viability, T/C [26]: 6.05% | viability, T/C [27]: 5.39% | viability, T/C [28]: 6.49% | viability, T/C [29]: 5.4% | viability, T/C [30]: 5.83% | viability, T/C [31]: 24.7% | viability, T/C [32]: 5.53% | viability, T/C [33]: 6.82% | viability, T/C [34]: 6.71% | viability, T/C [35]: 7.68% | viability, T/C [36]: 5.33%

C#Cc1c(F)ccc2cc(O)cc(-c3ncc4c(N5CC6CCC(C5)N6)nc(OCC56CCCN5CC(F)C6)nc4c3F)c12 (stereo not given) + Nc1ccc(C#CCN(C(=O)Cc2ncc(C(F)(F)F)cc2C(F)(F)F)c2ccc(F)cc2)nn1
IC50 (second compound 0.0316 µM): > 10 µM | IC50 (second compound 0.1 µM): > 10 µM | IC50 (second compound 0.316 µM): > 10 µM | IC50 (second compound 1 µM): > 10 µM | IC50 (second compound 3.16 µM): > 10 µM | IC50 (second compound 10 µM): > 10 µM | viability, T/C [1]: 105% | viability, T/C [2]: 110% | viability, T/C [3]: 84% | viability, T/C [4]: 101% | viability, T/C [5]: 97% | viability, T/C [6]: 99.5% | viability, T/C [7]: 100% | viability, T/C [8]: 96% | viability, T/C [9]: 94.4% | viability, T/C [10]: 98.6% | viability, T/C [11]: 97.3% | viability, T/C [12]: 92.3% | viability, T/C [13]: 114% | viability, T/C [14]: 110% | viability, T/C [15]: 113% | viability, T/C [16]: 111% | viability, T/C [17]: 98.5% | viability, T/C [18]: 102% | viability, T/C [19]: 105% | viability, T/C [20]: 102% | viability, T/C [21]: 95% | viability, T/C [22]: 112% | viability, T/C [23]: 96.1% | viability, T/C [24]: 105% | viability, T/C [25]: 113% | viability, T/C [26]: 106% | viability, T/C [27]: 105% | viability, T/C [28]: 106% | viability, T/C [29]: 115% | viability, T/C [30]: 111% | viability, T/C [31]: 97.7% | viability, T/C [32]: 103% | viability, T/C [33]: 102% | viability, T/C [34]: 96.4% | viability, T/C [35]: 102% | viability, T/C [36]: 116%

C=CC(=O)N1CCN(c2nc(=O)n(-c3c(C)ccnc3C(C)C)c3nc(-c4c(O)cccc4F)c(F)cc23)C(C)C1 (stereo not given) + Cc1cccc(N(C)C(=O)C2C(O)CCN2c2nc(C)cc(C(F)(F)F)c2C#N)c1
IC50 (second compound 0.0316 µM): > 10 µM | IC50 (second compound 0.1 µM): > 10 µM | IC50 (second compound 0.316 µM): > 10 µM | IC50 (second compound 1 µM): > 10 µM | IC50 (second compound 3.16 µM): > 10 µM | IC50 (second compound 10 µM): > 10 µM | viability, T/C [1]: 101% | viability, T/C [2]: 104% | viability, T/C [3]: 102% | viability, T/C [4]: 104% | viability, T/C [5]: 111% | viability, T/C [6]: 93.5% | viability, T/C [7]: 98.4% | viability, T/C [8]: 95.6% | viability, T/C [9]: 98.7% | viability, T/C [10]: 103% | viability, T/C [11]: 100% | viability, T/C [12]: 97.7% | viability, T/C [13]: 103% | viability, T/C [14]: 106% | viability, T/C [15]: 105% | viability, T/C [16]: 105% | viability, T/C [17]: 99.5% | viability, T/C [18]: 102% | viability, T/C [19]: 95.8% | viability, T/C [20]: 105% | viability, T/C [21]: 106% | viability, T/C [22]: 99.8% | viability, T/C [23]: 112% | viability, T/C [24]: 91.4% | viability, T/C [25]: 99.2% | viability, T/C [26]: 104% | viability, T/C [27]: 107% | viability, T/C [28]: 102% | viability, T/C [29]: 99.1% | viability, T/C [30]: 96.7% | viability, T/C [31]: 100% | viability, T/C [32]: 90.8% | viability, T/C [33]: 101% | viability, T/C [34]: 102% | viability, T/C [35]: 94.4% | viability, T/C [36]: 88.8%
